# Laboratory results from patent US12234486B2, “Modular, microfluidic, mechanically active bioreactor for 3D, multi-tissue, tissue culture” (University of Pittsburgh—Of the Commonwealth System of …, priority 2013, dated 2025).
# Tested on: chondrocytes in the cartilage chamber
# Assay: RT-PCR marker expression in cartilage (top) chamber of bioreactor after hormone supply
# Type: cell-based
# Settings: progesterone progressively added to estradiol, week 3 and 4 (10 nM, 50 nM), higher when hormones directly applied to cartilage
# Method: FIGS. 17-20 are graphs that show differential expression of markers (as determined by RT-PCR) for a control medium that contained no estrogen or progesterone (first bar), and then different concentrations of hormones supplied to one or the other of the bioreactor chambers during week 1 (w1: 0.1 nM estradiol), week 2 (w2: 1 nM estradiol), week 3 (w3: 1 nM estradiol and 10 nM progesterone), and week 4 (w4: 0.1 nM estradiol and 50 nM progesterone). […] FIGS. 17-18 show differential expression of markers (as determined by RT-PCR) for a control medium that contained no estrogen or progesterone (first bar), and then different concentrations of hormones supplied to the chambers during week 1 (w1: 0.1 nM estradiol), week 2 (w2: 1 nM estradiol), week 3 (w3: 1 nM estradiol and 10 nM progesterone), and week 4 (w4: 0.1 nM estradiol and 50 nM progesterone).
compound,measurement,value
CC(=O)[C@H]1CC[C@H]2[C@@H]3CCC4=CC(=O)CC[C@]4(C)[C@H]3CC[C@]12C [progesterone],"cartilage anabolic markers (Sox9, Aggrecan)",downregulation is still present
